Test results taken from US20220125746A1, “METHOD OF PREVENTING OR TREATING TREATMENT-INDUCED GASTROINTESTINAL INJURY” (priority 2019, published 2022).
Counter-ions that a name gives are not always drawn.

Legend:
[1] = tested on: colon cancer cell line DLD1; test: PUMA-induced apoptosis inhibition in DLD1
Description: (§2) PUMAi was added to cells at 25 uM at the same time as CPT.
(§3) A minimum of 300 cells per treatment were analyzed in triplicate.

[2] = tested on: colon cancer cell line HCT-116; test: PUMA-induced apoptosis inhibition in HCT-116
Description: as §2, §3

[3] = biological target: T1, p53 (Rattus norvegicus, UniProt P10361); conditions: rats, cited from earlier work
T1 construct: host or cells: rat intestine in vivo

[4] = tested on: C57BL/6J mice; test: Survival and GI injury after three daily doses of CPT-11; type: in vivo, mouse; conditions: for lethality: three consecutive daily doses, C57BL/6J WT mice
Source text: (§1) Immediately after sacrifice, about 10-cm portion of the jejunum was removed and carefully rinsed with ice-cold saline. The tissue was opened longitudinally and tacked to a foam board for fixation overnight in 10% formalin. Tissues were then rolled up into “swiss rolls” and embedded in paraffin. For tumor analysis, flank tumors were removed, measured, and cut into pieces for either formalin fixation or flash freezing in a dry ice/ethanol bath. Tissue sections (5 um) were deparaffinized and rehydrated through graded ethanols. Histological analysis was performed by hematoxylin and eosin (H&E) staining.
; CPT-11). […] . […] BH3-only proteins BIM and NOXA were not induced by CPT-11 or affected by Puma KO (FIG. 8F). […] . […] . Histological analysis confirmed lethal GI injury in WT and p53 KO mice on day 5, showing severe loss of crypts and shortening of villi, which was abrogated in Puma KO mice (FIG. 1F).

[5] = tested on: Lewis lung carcinoma (LLC) tumors; test: LLC tumor-bearing mice treated with CPT-11 six times over 2 weeks; type: in vivo, mouse; conditions: LLC tumor experiments
Description: For tumor experiments, 4 million LLC cells [American Type Culture Collection (ATCC)] were injected into the flanks of WT and Puma KO mice and allowed to grow for 11 days. Mice were then treated with CPT-11 (200 mg/kg) three times per week for 2 weeks. PUMAi (10 mg/kg) or vehicle control was administered by intraperitoneal injection 2 hours before and 20 hours after each dose of CPT-11. Mice were sacrificed 4 hours after the final CPT-11 treatment.
For tumor experiments, mice were treated with CPT-11 three times per week for two weeks. Mice receiving PUMAi were treated 2 hours before each dose of CPT-11 and 20 hours after. Mice were sacrificed four hours after the final CPT-11 treatment (FIG. 13A). Tumor volumes were measured with calipers and calculated as volume=(length x width2)/2. Mice were 7-9 weeks old, and roughly equal numbers of male and female animals were used. To account for variations in starting body weights, the values in FIGS. 3 and 4 are expressed as a percentage of the respective mouse weights at the time of the first CPT-11 treatment.
as §1
Average villus height was determined by measuring 40 to 50 villi from different locations of the small intestine, from at least three different animals per group, and reported as means A} SEM. Measurements were made from the top of the crypt to the tip of the villus using 100 Å˜H&E images and SPOT 5.1 Advanced software (Diagnostic Instruments Inc.).
Neutrophil IF. Sections were prepared as described above. […] Sections were then incubated with AlexaFluor-594 goat antirat secondary antibodies (1:200; A11007; Invitrogen) for 1 hour at room temperature and counterstained with VectaShield plus DAPI.

[6] = colorectal cancer patients; cited from earlier work
[7] = tested on: LGR5+ stem cells; conditions: after six doses of CPT-11
Description: WT and Puma KO mice carrying the Lgr5-EGFP-IRES-creERT2 marking allele were treated with CPT-11 and PUMAi over 2 weeks as in FIGS. 5A-5G and analyzed for intestinal phenotypes. (FIG. 6A) GFP (LGR5) immunofluorescence in intestinal crypts. Arrows indicate LGR5^+ (GFP) crypts. Scale bar, 100 um. (FIG. 6B) Quantitation of intestinal crypts containing at least one GFP^+ (LGR5^+) cell. (FIG. 6C) Top: Olfm4 RNA ISH in intestinal crypts. Scale bar, 50 um. Asterisks indicate Olfm4+ crypt cells. Bottom: Percentage of crypts containing at least one Olfm4+ cell. (FIG. 6D) MMP7 immunofluorescence in intestinal crypts. Scale bar, 100 um. (FIG. 6E) Quantitation of MMP7+ crypt cells at the crypt base (CBC region). (FIG. 6F) Top: GFP (LGR5) and MMP7 immunofluorescence in intestinal crypts. Scale bar, 20 um. Asterisks indicate LGR5^+/MMP7^+ cell pairs. Bottom: Quantitation of LGR5^+/MMP7^+ cell pairs per crypt. In (FIG. 6A), (FIG. 6D), and (FIG. 6F), DAPI was used to stain nuclei. In (FIG. 6B), (FIG. 6C), (FIG. 6E), and (FIG. 6F), values are means+SEM; n=3 mice. *P<0.05, **P<0.01, and ***P<0.001 (one-way ANOVA with Tukey post hoc test).
LGR5 (GFP) IF. Sections were deparaffinized and rehydrated through graded ethanols. Antigen retrieval was performed by boiling for 10 minutes in 0.1 M citrate buffer (pH 6.0) with 1 mM EDTA. Non-specific antibody binding was blocked using 20% goat serum (Invitrogen) at room temperature for 30 min. […] Sections were then washed in PBS and mounted with VectaShield+DAPI (Vector Labs).
MMP7 IF. Sections were prepared as described above. Non-specific antibody binding was blocked using 20% chicken serum (Invitrogen) at room temperature for 30 min. Sections were washed in PBS and incubated overnight at 4 °C in a humidified chamber with 1:100 diluted goat anti-MMP7 (AF2967; R&D Systems). […] Sections were then washed in PBS and mounted with VectaShield+DAPI (Vector Labs) for visualization.
LGR5(GFP)/1VIMP7 IF. Sections were prepared as described above. Non-specific antibody binding was blocked using 20% chicken serum (Invitrogen) at room temperature for 30 min. Sections were then stained for GFP as described above, followed by staining for MMP7 as described.
ISH for Olfm4 was carried out with the RNAscope 2.0 BROWN kit (Advanced Cell Diagnostics) according to the manufacturer's instructions. Briefly, tissue sections were baked for 60 min at 60 ÅåC, then deparaffinized in xylene, and rehydrated through graded ethanols. Sections then underwent three pretreatment steps, probe hybridization, six amplification steps, development, and counterstaining.

[8] = tested on: intestinal crypts; test: CPT-11-induced intestinal crypt apoptosis in mice (TUNEL, active caspase-3); conditions: single dose 200 mg/kg, WT mice, TUNEL and active caspase-3
Description: Puma+/+ (WT) and Puma−/− (Puma KO) mice (52) were generated in-house by heterozygote breeding. WT and Puma KO alleles were genotyped from genomic DNA isolated from tail snips, as described (52). p53−/− (p53 KO) mice were purchased from the Jackson Laboratory. […] All strains are in or have been backcrossed with the C57BL/6 background for more than 10 generations (F10). Mice were housed in microisolator cages in a room illuminated from 07:00 to 19:00 hours (12:12-hour light/dark cycle), with access to water and chow ad libitum.
Rehydrated sections were treated with 3% hydrogen peroxide (immunochemistry only), followed by antigen retrieval for 10 min in boiling 0.1 M citrate buffer (pH 6.0) with 1 mM EDTA. Apoptosis was analyzed by TUNEL staining with the ApopTag Peroxidase In Situ Apoptosis Detection kit (Chemicon International) according to the manufacturer's instructions.
Active caspase 3 IHC. Sections were deparaffinized and rehydrated through graded ethanols. Rehydrated sections were then treated with 3% hydrogen peroxide, followed by antigen retrieval for 10 minutes in boiling 0.1 M citrate buffer (pH 6.0) with 1 mM EDTA. Non-specific antibody binding was blocked using 20% goat serum (Invitrogen) at room temperature for 30 minutes.

[9] = tested on: mouse colonic organoids; test: Mouse colonic organoids treated with CPT; type: cell-based; conditions: CPT 500 nM 24 h
Description: Fresh mucosal scrapings from 10 cm of jejunum were washed in cold PBS, resuspended in 700 ul of RNA lysis buffer, and homogenized in a Dounce homogenizer. RNA was isolated using the Quick-RNA MiniPrep kit (Zymo Research) according to the manufacturer's instructions. Organoids were freed from Matrigel using Cell Recovery Solution (Corning), as described in, before RNA isolation. Complementary DNA was generated from 2 ug of total RNA from mice or ˜100 ng of total RNA from colonic organoids and was pooled from three mice or three wells of organoid culture per treatment group using SuperScript III reverse transcriptase (Invitrogen) and random primers. Gene expression was normalized to Gapdh. Representative results are shown, and similar results were obtained in at least three independent experiments. Details on mouse and human primers are found in Tables 1 and 2.
Mouse crypt isolation, organoid development, and passage were done as previously described with minor modifications. In brief, the complete culture medium for mouse intestinal organoids was slightly modified as follows: advanced Dulbecco's modified Eagle medium (DMEM)/F12 (12634-010, Invitrogen) was supplemented with 100 units/ml penicillin/0.1 mg/ml streptomycin (Invitrogen), 2 mM GlutaMAX (ThermoFisher), 20% (vol/vol) FBS (S11150, ATLANTA Biologicals), and WRN-conditioned medium (50%, vol/vol). Freshly isolated crypts were cultured with the same medium plus 10 μM Y-27632 (Y0503 Sigma) and 100 μg/ml Primocin (ant-pm-1, InvivoGen). For CPT and PUMAi treatment, intestinal organoids were passaged and re-plated in 25 μL of Matrigel (356231, Corning) in 24-well plates 24 hours before treatment with CPT (0.5 μM, C9911, Sigma-Aldrich) and PUMAi (50 μM) for 24 hours. The CPT-containing medium was replaced with complete medium containing PUMAi (50 μM). Three groups (treatment control, CPT only, and CPT plus PUMAi) were set up. Organoids 100 μm or greater in diameter were enumerated on day 6 after CPT treatment. Similar results were obtained from at least three independent experiments with triplicate wells in each experiment.

T1 sequence (P10361 whole entry): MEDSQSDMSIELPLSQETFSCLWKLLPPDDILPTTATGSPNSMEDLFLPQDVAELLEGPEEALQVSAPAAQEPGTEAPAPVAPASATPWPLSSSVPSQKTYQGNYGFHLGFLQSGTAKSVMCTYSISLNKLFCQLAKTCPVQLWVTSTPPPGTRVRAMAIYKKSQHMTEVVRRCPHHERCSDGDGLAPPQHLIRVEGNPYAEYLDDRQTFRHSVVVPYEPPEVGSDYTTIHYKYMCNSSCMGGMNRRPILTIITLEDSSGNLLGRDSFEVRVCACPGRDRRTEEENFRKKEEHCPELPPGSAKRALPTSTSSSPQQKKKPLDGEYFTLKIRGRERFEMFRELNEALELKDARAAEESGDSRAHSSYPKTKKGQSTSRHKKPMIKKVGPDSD

| Compound | Apoptosis inhibition of DLD1 [1] | Apoptosis inhibition of HCT-116 [2] | further results |
| --- | --- | --- | --- |
| CC(C)CNC(=O)c1ccc2c(c1)nc1n2CCN(C(C)(C)CO)C1 [Compound 20722356] | 36% | – | – |
| Cc1ccc(OCC(=O)N/N=C/c2cccc(O)c2)cc1C [Compound 7a] | 41% | 33% | – |
| COc1cccc(/C=C/NC(=O)CNc2ccc(C)cc2)c1 [Compound 7h] | 30% | 33% | – |
| Cc1ccc(C(=O)Cn2c3c(sc2=N)CCCC3)cc1 [pifithrin-α] | – | – | delayed cell death and onset of mucositis ([3]; CPT-11): did not affect delayed cell death or the onset of mucositis; CPT-11-induced intestinal apoptosis ([3]; within the first several hours): reduced CPT-11-induced intestinal apoptosis |
| COc1ccc(CCNC(=O)COc2ccc(C)cc2)cc1OC [Compound V1] | 41% | 38% | – |
| Cc1ccc(/C=N/NC(=O)COc2ccc(C)c(C)c2)o1 [Compound 7i] | 26% | 13% | – |
| COc1cccc(/C=N/NC(=O)COc2cccc(C)c2)c1OC [Compound 7c] | 26% | 21% | – |
| CCc1c2c(nc3ccc(OC(=O)N4CCC(N5CCCCC5)CC4)cc13)-c1cc3c(c(=O)n1C2)COC(=O)[C@]3(O)CC [CPT-11, irinotecan hydrochloride, reference compound] | – | – | lethality ([4]; 180 mg/kg per day): 30%; lethality ([4]; 215 mg/kg per day): 90%; lethality ([4]; 250 mg/kg per day): 100%; survival at the LD90 of CPT-11, without PUMAi ([4]; CPT-11 215 mg/kg per day x3, WT mice): 10%; % mice compieting treatment ([5]; PUMA KO mice): 100% (6/6); % mice compieting treatment ([5]; WT mice): 73% (8/11); patients with severe diarrhea and nausea [6]: more than 50%; drop in Olfm4+ crypts (RNA ISH) [7]: 93%; reduction of LGR5+ crypt cells and fraction of LGR5+ crypts [7]: more than 90%; time of peak crypt apoptosis [8]: 6 h |
| CCCCc1c(C)nc(N2CCN(CCO)CC2)[nH]c1=O [Compound 20647237] | 21% | – | – |
| Cc1ccc(OCC(=O)Nc2ccc(S(N)(=O)=O)cc2)cc1 [Compound 7f] | −2% (no inhibition) | −8% (no inhibition) | – |
| Cc1ccc(OCC(O)CN2CCN(CCO)CC2)cc1C (stereo not drawn) [Compound 21487182] | 61% | 35% | – |
| CC(C)c1ccc(OCC(=O)N/N=C/c2cccnc2)cc1 [Compound 7j] | 26% | −8% (no inhibition) | – |
| CCc1ccc(OCC(=O)NCc2ccc3c(c2)OCO3)cc1 [Compound V2] | 39% | 40% | – |
| O=c1[nH]cc(F)c(=O)[nH]1 [Compound 5-FU, 5-fluorouracil] | – | – | patients with chemotherapy induced diarrhea [6]: 50% |
| O=C(CCc1ccccc1)N/N=C/c1cccc(O)c1 [Compound 7d] | 24% | 21% | – |
| CC[C@@]1(O)C(=O)OCc2c1cc1n(c2=O)Cc2cc3ccccc3nc2-1 [CPT, camptothecin, reference compound] | – | – | effect of CPT on mouse colonic organoids [9]: induced growth suppression and activation of caspase-3 |
| N#CCc1ccc(NC(=O)COc2ccc3c(c2)CCC3)cc1 [Compound 7g] | 24% | −17% (no inhibition) | – |
| Cc1ccc(OCC(=O)N/N=C/c2cccc(O)c2)cc1 [Compound 7b] | −2% (no inhibition) | 21% | – |
| Cc1ccc(OCC(=O)Nc2ccc(N3CCOCC3)cc2)cc1 [Compound 7e] | 30% | 44% | – |
